Measured values published in US9150528B2, “Compound having detrusor muscle-contracting activity and urethral sphincter muscle-relaxing activity” (ONO PHARMACEUTICAL CO., LTD., priority 2009, dated 2015).

How the values were obtained:
[1] = tested on: urinary excretion dysfunction models; assay: Urinary excretion dysfunction models, maximal urinary flow rate; assay type: in vivo; conditions: 60 ng/kg/h continuous intravenous, cynomolgus monkey urinary excretion dysfunction model
Description: Urinary excretion dysfunction models were constructed in accordance with the following procedure. After anesthesia of cynomolgus monkeys, the region from the suprapubic area to the abdominal area was shaved, followed by fixing in a dorsal position. The shaved region was disinfected and the four legs were fixed. Using an electrosurgical knife, the skin region from the suprapubic area to the umbilical area and the peritoneal membrane were sequentially incised, followed by damage to the pelvic nerve and removal of the uterus. After the surgical operation, viccillin-containing physiological saline was added dropwise to the incised area. The peritoneal membrane and skin of the incised area were sutured with silk threads and disinfected. Viccillin was administered for 7 consecutive days after surgery. Meloxicam was administered once daily for 7 consecutive days to manage pain in the perioperative period.
The cynomolgus monkeys were seated on monkey chairs, followed by retention of the hands and legs with strings. Injectable water was administered orally, and physiological saline and the test compound (60 ng/kg/h) were continuously administered intravenously to allow urination freely. The maximal urinary flow rate was measured using a urine weighing sensor.

[2] = tested on: normal rats; assay: Blood pressures and heart rates in normal rats; assay type: in vivo, rat; conditions: 0.3 mg/kg, oral
Protocol: The blood pressures and heart rates of female Wistar rats were measured in accordance with the following procedure. On the day of measurement, indwelling of catheters for blood pressure•heart rate measurement was carried out under anesthesia with ether. The back of the neck of each rat was incised; a feeding catheter (Atom Medical Corporation) filled with heparinized physiological saline was introduced from the back of the neck; the catheter was inserted into the common carotid artery; and the surgical incision was closed. The measurements were carried out in a Bollmann cage under the conscious state, and the evaluations were carried out after confirming that the individual parameters were stabilized. After confirming the stabilization of blood pressure and heart rate, the test compound which was prepared using injectable water containing equimolar NaOH was orally administered at a dose of 5 mL/kg.
The catheter drawn from the back of the neck was connected to a pressure transducer (DX-200, NIHON KOHDEN CORP.), and the blood pressures and heart rates were measured using an amplifier for pressure measurement (Gould Instrument). The blood pressures and heart rates were recorded using a recorder (LINEARCORDERWR3320, GRAPHTEC). For each individual, rates of increase and decrease in average blood pressure and heart rate before administration and 30, 60, 120, and 180 min after administration were calculated with respect to the values of each individual before administration. Changes in blood pressure and heart rate before and after administration of the test compound were evaluated.

[3] = Systemic clearance after intravenous administration; assay type: in vivo; conditions: plasma, cynomolgus monkey, 0.001 mg/mL/kg
Protocol: Equimolar sodium hydroxide and injectable distilled water were added to each of the test compounds to prepare a 1 mg/mL aqueous solution. The aqueous solution was diluted with physiological saline until the concentration reached 0.001 mg/mL and was rapidly administered at a dose of 0.001 mg/mL/kg to cynomolgus monkey through the cephalic vein. Via heparinized syringes, 2 min, 5 min, 15 min, 30 min, 1 hr, 2 hr, 4 hr, 6 hr, 8 hr and 24 hr after administration, blood was drawn from the cephalic vein (non-administered sites). After centrifugation, blood plasma was sampled and stored at −80° C. before pretreatment. The blood plasma was pretreated by mixing with acetonitrile and centrifuging to remove proteins followed by measurement by LC/MS/MS. Changes of concentration in blood plasma was analyzed using WinNonlin4.0.1 to evaluate the systemic clearance of the test compound.

clearance [3]: 1.43 L/h/kg
SMILES: C=CCC[C@](C)(O)C/C=C/[C@H]1CCC(=O)[C@@H]1CCSc1nc(C(=O)O)cs1 [Comparative compound D, 2-[(2-{(1R,2R)-2-[(1E,4S)-4-hydroxy-4-methyl-1,7-octadien-1-yl]-5-oxocyclopentyl}ethyl)thio]-1,3-thiazole-4-carboxylic acid]
improvement in maximal urinary flow rate over the vehicle group [1]: 36%
effect on the blood pressure [2]: tendency to decrease
increase in heart rate [2]: about 20%
